Data taken from patent US20140256771A1, “COMPOUNDS THAT MODULATE INTRACELLULAR CALCIUM” (CalciMedica, Inc., priority 2011, published 2014).
Where two headings read alike, the source gives them in different places.

What was measured:
STIM1 and Orai1 = STIM1 and Orai1 (Homo sapiens, UniProt Q96D31); conditions: HEK293 cells co-expressing STIM1 and Orai1; cited from earlier work
Jurkat cells [1] = conditions: cited from earlier work
Jurkat cells [2] = conditions: cited from earlier work; remark: listed apart in the source
RBL-2H3 cells = assay: Fluorescence-based assay of store-operated calcium entry in RBL-2H3 cells; assay type: cell-based, rat; conditions: Rattus norvegicus, RBL-2H3, thapsigargin store depletion, 50% inhibition of Upslope, read-out: RBL-2H3 (IC50, μmol)
Procedure: B. Fluorescence-based Assay of Store-Operated Calcium Entry in RBL-2H3Cells.
RBL-2H3 cells are obtained from ATCC and maintained in complete medium with 10% FBS at 37° C./6% CO2.
The day prior to performing the assay, RBL-2H3 cells are plated in 50 μL of complete medium in a 384 well plate. Cells are grown at 37° C./6% CO2 overnight and grow to 50-60% confluence by the next day. On the assay day, 1.5 μM Fluo-4-AM dye (Invitrogen) in complete medium is added and incubated for 1 hour at RT. Cells are washed twice in Ca^2+-free HBSS buffer and 35 μL Ca^2+-free HBSS buffer is added to each well. 10 μL of a test compound prepared in a Ca^2+-free HBSS solution at 4.5× of the desired concentration is added to a well and incubated for 5 minutes at RT. 10 μL of thapsigargin prepared in a Ca^2+-free HBSS solution at 5.5× of the desired concentration (5.5 uM) is added to each well and incubated for an additional 25 minutes. The initial baseline fluorescence signal is measured with a FLIPR^384 (Molecular Devices) plate reader. 5 μL of 12× calcium in HBSS (12 mM) is added and changes in cellular fluorescence are measured with the FLIPR^384 plate reader. In each well, the change in the fluorescent signal as a function of time due to calcium entry into the cell is determined by calculating the difference between the fluorescent signal measured 7 seconds after calcium addition and the initial baseline fluorescence signal at time zero (t=0). This parameter is designated Upslope. The IC50 value is calculated as the concentration at which 50% of the Upslope is inhibited.

Orai1/STIM1 = biological target: T1, Orai1/STIM1 (Homo sapiens, UniProt Q96D31); assay: Fluorescence-based assay of store-operated calcium entry in Orai1/STIM1 stable cells; assay type: cell-based; conditions: HEK-293 cells stably expressing human STIM1 and Orai1, 50% inhibition of Peak-Basal fluo-4 signal; for IC50: read-out: Orai1/STIM1 (IC50, μmol)
T1 construct: expressed in transfected cells; host or cells: HEK-293
Procedure: A. Fluorescence-based Assay of Store-Operated Calcium Entry in Orai1/STIM1 Stable Cells.
Cells stably expressing recombinant human STIM1 and Orai1 are generated by transfecting a human Orai1 expression plasmid (pcDNA3.1-Orai1-cmyc) into HEK-293 cells stably overexpressing human STIM1 (Roos et al. 2005 JCB 169(3): 435-445). Colonies of cells stably expressing both STIM1 and Orai1 proteins are selected and then subcloned by limiting dilution. Cells were cultured at 37° C./6% CO2 in complete medium with 10% FBS and appropriate selection markers.
The day prior to performing the assay Orai1/STIM1 stable cells are plated in 50 μL of complete medium at 90-95% confluence in a 384 well plate. Cells are grown at 37° C./6% CO2 overnight. On the day of the assay, 1.5 μM fluo-4-AM (Invitrogen) in complete medium is added to the cells, which are then incubated for 1 hour at RT. Cells are washed once in Ca^2+-free HBSS (Hank's buffered saline solution) and 35 μl of Ca^2+-free HBSS is added to each well. Test compounds are added to wells in a 10 μL Ca^2+-free HBSS solution, prepared at 4.5× the desired final concentration, and incubated for 30 minutes at RT. The initial baseline fluorescence signal is then measured with a FLIPR^384 (Molecular Devices) plate reader. Calcium entry is initiated by adding 5 μl of 10× CaCl2 (10 mM) in HBSS, and changes in cellular fluorescence are measured with the FLIPR^384 plate reader. In each well, the magnitude of the fluorescence signal as a result of calcium entry into the cell is determined by calculating the difference between the peak fluorescence signal measured after calcium addition and the initial baseline fluorescence signal (designated Peak-Basal). IC50 values are typically calculated as the concentration that inhibited 50% of the Peak-Basal signal (Table A).

T1 sequence (Q96D31 whole entry): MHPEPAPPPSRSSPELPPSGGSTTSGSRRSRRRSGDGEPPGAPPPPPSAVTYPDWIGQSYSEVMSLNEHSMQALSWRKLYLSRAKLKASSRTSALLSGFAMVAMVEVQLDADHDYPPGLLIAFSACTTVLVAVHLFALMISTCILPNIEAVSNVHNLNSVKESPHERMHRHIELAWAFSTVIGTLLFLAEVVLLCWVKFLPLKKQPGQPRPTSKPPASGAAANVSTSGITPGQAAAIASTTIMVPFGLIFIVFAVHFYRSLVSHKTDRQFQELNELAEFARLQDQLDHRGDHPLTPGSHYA
STIM1 and Orai1, sequence (Q96D31 whole entry, species assumed): as the sequence (Q96D31 whole entry) above

NCCOB(c1ccccc1)c1ccccc1 [2-aminoethoxydiphenylborate]
block of store dependent Ca2+ entry (STIM1 and Orai1): completely blocked

Cc1nnsc1C(=O)Nc1ccc(-n2nc(C(F)(F)F)cc2C(F)(F)F)cc1 [BTP-2]
inhibition of proliferation (Jurkat cells [1]): inhibits | inhibition of SOCE (Jurkat cells [2]): inhibits

Cc1nc(C(F)(F)F)cn1-c1ccc(NC(=O)c2c(F)cccc2F)cc1F
IC50 (RBL-2H3 cells; Table iv): 600 to 1200 nM | IC50 (Orai1/STIM1; Table iv): > 1200 nM

Cn1nc(C(F)(F)F)cc1-c1ccc(NC(=O)c2ccccc2F)cc1F
IC50 (RBL-2H3 cells; Table iv): < 600 nM | IC50 (Orai1/STIM1; Table iv): < 600 nM

Cc1nc(C(F)(F)F)cn1-c1ccc(NCc2ccccc2F)cc1
IC50 (RBL-2H3 cells; Table iii): < 600 nM | IC50 (Orai1/STIM1; Table iii): < 600 nM

Cc1sc(C(F)(F)F)nc1-c1ccc(NCc2c(F)cc(F)cc2F)cc1
IC50 (RBL-2H3 cells; Table iii): < 600 nM | IC50 (Orai1/STIM1; Table iii): < 600 nM

Cc1cc2c(cc1-c1ccc(NCc3c(F)cncc3F)cc1F)OC(F)(F)O2
IC50 (RBL-2H3 cells; Table iii): < 600 nM | IC50 (Orai1/STIM1; Table iii): 600 to 1200 nM

Cn1nc(C(F)(F)F)cc1-c1ccc(NCc2c(F)ccc(F)c2F)cc1
IC50 (RBL-2H3 cells; Table iii): < 600 nM | IC50 (Orai1/STIM1; Table iii): < 600 nM

Cc1nc(C(F)(F)F)cn1-c1ccc(NC(=O)c2c(F)ccc(F)c2F)cc1
IC50 (RBL-2H3 cells; Table iv): < 600 nM | IC50 (Orai1/STIM1; Table iv): > 1200 nM

Cn1nc(C(F)(F)F)cc1-c1ccc(NCc2c(F)cc(F)cc2F)cc1
IC50 (RBL-2H3 cells; Table iii): < 600 nM | IC50 (Orai1/STIM1; Table iii): < 600 nM

Cn1nc(C(F)(F)F)cc1-c1c(F)cc(NCc2ccccc2F)cc1F
IC50 (RBL-2H3 cells; Table iii): < 600 nM | Orai1/STIM1 (IC50, μmol) (Orai1/STIM1; Table iii): Max inh. <50%

Cn1nc(C(F)(F)F)cc1-c1ccc(NC(=O)c2ccc(F)cc2F)cc1F
IC50 (RBL-2H3 cells; Table iv): < 600 nM | IC50 (Orai1/STIM1; Table iv): < 600 nM

Cc1cc2c(cc1-c1ccc(NC(=O)c3ccccc3F)cc1)OC(F)(F)O2
IC50 (RBL-2H3 cells; Table iv): < 600 nM | IC50 (Orai1/STIM1; Table iv): 600 to 1200 nM

Cc1cccc(F)c1C(=O)Nc1ccc(-c2cn(C(F)F)nc2C)cc1
IC50 (RBL-2H3 cells; Table iv): < 600 nM | IC50 (Orai1/STIM1; Table iv): 600 to 1200 nM

Fc1cnccc1CNc1ccc(-n2nc(C(F)(F)F)cc2C(F)(F)F)cc1
IC50 (RBL-2H3 cells; Table iii): < 600 nM | IC50 (Orai1/STIM1; Table iii): 600 to 1200 nM

Cn1nc(C(F)(F)F)cc1-c1ccc(NC(=O)c2c(F)cc(F)cc2F)cc1
IC50 (RBL-2H3 cells; Table iv): < 600 nM | IC50 (Orai1/STIM1; Table iv): < 600 nM

Cc1cc(C(F)(F)F)nn1-c1ccc(NCc2c(F)cc(F)cc2F)cc1
IC50 (RBL-2H3 cells; Table iii): < 600 nM | IC50 (Orai1/STIM1; Table iii): < 600 nM

Cn1nc(C(F)(F)F)cc1-c1c(F)cc(NC(=O)c2ccccc2F)cc1F
IC50 (RBL-2H3 cells; Table iv): < 600 nM | IC50 (Orai1/STIM1; Table iv): < 600 nM

O=C(Nc1ccc(-n2nc(C(F)(F)F)cc2C(F)(F)F)cc1)c1c(F)cncc1F
IC50 (RBL-2H3 cells; Table iv): < 600 nM | IC50 (Orai1/STIM1; Table iv): > 1200 nM

Cc1nc(C(F)(F)F)cn1-c1ccc(NCc2ccccc2F)cc1F
IC50 (RBL-2H3 cells; Table iii): < 600 nM | IC50 (Orai1/STIM1; Table iii): < 600 nM

Cc1nn(C(F)F)cc1-c1ccc(NCc2c(F)cccc2F)cc1
IC50 (RBL-2H3 cells; Table iii): < 600 nM | IC50 (Orai1/STIM1; Table iii): < 600 nM

Cc1nn(C(F)F)cc1-c1ccc(NCc2c(F)ccc(F)c2F)cc1
IC50 (RBL-2H3 cells; Table iii): < 600 nM | IC50 (Orai1/STIM1; Table iii): < 600 nM

CCn1nc(C(F)(F)F)cc1-c1ccc(NCc2ccccc2F)cc1F
IC50 (RBL-2H3 cells; Table iii): < 600 nM | IC50 (Orai1/STIM1; Table iii): < 600 nM

Cc1nnsc1C(=O)Nc1ccc(-n2nc(C(F)(F)F)cc2C)cc1
IC50 (RBL-2H3 cells; Table iv): < 600 nM | IC50 (Orai1/STIM1; Table iv): 600 to 1200 nM

Cn1nc(C(F)(F)F)cc1-c1c(F)cc(NC(=O)c2c(F)cccc2F)cc1F
IC50 (RBL-2H3 cells; Table iv): < 600 nM | IC50 (Orai1/STIM1; Table iv): > 1200 nM

Cc1cc(F)ccc1CNc1ccc(-c2cc(C(F)F)nn2C)c(F)c1
IC50 (RBL-2H3 cells; Table iii): < 600 nM | IC50 (Orai1/STIM1; Table iii): 600 to 1200 nM

Cc1nc(C(F)(F)F)cn1-c1ccc(NCc2c(F)ccc(F)c2F)cc1
IC50 (RBL-2H3 cells; Table iii): < 600 nM | IC50 (Orai1/STIM1; Table iii): < 600 nM

Cn1nc(C(F)(F)F)cc1-c1ccc(NCc2c(F)cncc2F)cc1
IC50 (RBL-2H3 cells; Table iii): < 600 nM | IC50 (Orai1/STIM1; Table iii): < 600 nM

CCn1nc(C(F)(F)F)cc1-c1ccc(NC(=O)c2c(F)cc(F)cc2F)cc1F
IC50 (RBL-2H3 cells; Table iv): < 600 nM | IC50 (Orai1/STIM1; Table iv): 600 to 1200 nM

Cn1nc(C(F)(F)F)cc1-c1ccc(NC(=O)c2c(F)cncc2F)c(F)c1
IC50 (RBL-2H3 cells; Table iv): < 600 nM | IC50 (Orai1/STIM1; Table iv): < 600 nM

Cn1nc(C(F)(F)F)cc1-c1ccc(NCc2ccc(F)cc2F)cc1F
IC50 (RBL-2H3 cells; Table iii): < 600 nM | IC50 (Orai1/STIM1; Table iii): < 600 nM

Cn1nc(C(F)(F)F)cc1-c1ccc(NCc2c(F)cccc2F)cc1F
IC50 (RBL-2H3 cells; Table iii): < 600 nM | IC50 (Orai1/STIM1; Table iii): < 600 nM

Cn1nc(C(F)(F)F)cc1-c1c(F)cc(NCc2c(F)cccc2F)cc1F
IC50 (RBL-2H3 cells; Table iii): < 600 nM | IC50 (Orai1/STIM1; Table iii): 600 to 1200 nM

Cc1nc(C(F)(F)F)cn1-c1ccc(NC(=O)c2c(F)cc(F)cc2F)cc1
IC50 (RBL-2H3 cells; Table iv): < 600 nM | IC50 (Orai1/STIM1; Table iv): > 1200 nM

Cc1cc2c(cc1-c1ccc(NC(=O)c3c(F)cccc3F)cc1)OC(F)(F)O2
IC50 (RBL-2H3 cells; Table iv): < 600 nM | IC50 (Orai1/STIM1; Table iv): > 1200 nM

Cn1nc(C(F)(F)F)cc1-c1ccc(NCc2c(F)ccc(F)c2F)cc1F
IC50 (RBL-2H3 cells; Table iii): < 600 nM | IC50 (Orai1/STIM1; Table iii): < 600 nM

Cc1sc(C(F)(F)F)nc1-c1ccc(NC(=O)c2ccccc2F)cc1
IC50 (RBL-2H3 cells; Table iv): < 600 nM | IC50 (Orai1/STIM1; Table iv): < 600 nM

CCn1nc(C(F)(F)F)cc1-c1ccc(NCc2c(F)cc(F)cc2F)cc1F
IC50 (RBL-2H3 cells; Table iii): < 600 nM | IC50 (Orai1/STIM1; Table iii): 600 to 1200 nM

Cc1nn(C(F)F)cc1-c1ccc(NC(=O)c2ccccc2F)cc1
IC50 (RBL-2H3 cells; Table iv): 600 to 1200 nM | IC50 (Orai1/STIM1; Table iv): 600 to 1200 nM

Cc1cc2c(cc1-c1ccc(NCc3c(F)cccc3F)cc1F)OC(F)(F)O2
IC50 (RBL-2H3 cells; Table iii): < 600 nM | IC50 (Orai1/STIM1; Table iii): > 1200 nM

Cc1nc(C(F)(F)F)cn1-c1ccc(NCc2c(F)cccc2F)cc1F
IC50 (RBL-2H3 cells; Table iii): < 600 nM | IC50 (Orai1/STIM1; Table iii): < 600 nM

Cn1nc(C(F)(F)F)cc1-c1ccc(NC(=O)c2c(F)ccc(F)c2F)cc1
IC50 (RBL-2H3 cells; Table iv): < 600 nM | IC50 (Orai1/STIM1; Table iv): < 600 nM

Cc1cc(F)ccc1CNc1ccc(-n2nc(C(F)(F)F)cc2C)c(F)c1
IC50 (RBL-2H3 cells; Table iii): < 600 nM | IC50 (Orai1/STIM1; Table iii): 600 to 1200 nM

Cc1nn(C(F)F)cc1-c1ccc(NC(=O)c2c(F)cc(F)cc2F)cc1F
IC50 (RBL-2H3 cells; Table iv): < 600 nM | IC50 (Orai1/STIM1; Table iv): < 600 nM

Cn1nc(C(F)(F)F)cc1-c1ccc(NCc2c(Cl)cnn2C)cc1
IC50 (RBL-2H3 cells; Table iii): < 600 nM | IC50 (Orai1/STIM1; Table iii): 600 to 1200 nM
